According to patent US20260176700A1, “TOXICITY MARKER FOR 5-FLUOROURACIL” (Oxford University Innovation Limited, priority 2022, published 2026):

Legend:
[1] = test system: patients with reduced DPD activity; conditions: patients with germline DPYD variants / reduced DPD activity, 5FU-related toxicity; cited from earlier work
[2] = test system: colorectal cancer patients; test: QUASAR 2 clinical trial: cardiovascular related adverse events under capecitabine; format: in vivo, human; conditions: stage II/III colorectal cancer patients administered capecitabine (alone or plus bevacizumab), most common events cardiac chest pain and angina
Experimental: QUASAR 2, a randomised controlled trial of capecitabine+bevacizumab has been described previously (Kerr, R. S., et al. Lancet Oncol, 2016. 17(11):1543-1557; and Rosmarin, D., et al. Gut, 2015. 64(1):111-20). Briefly, participants were stage II/stage III colorectal cancer patients with performance status 0/1 and normal renal function. Patients were randomly assigned (1:1) to receive eight 3-week cycles of oral capecitabine alone (1250 mg/m^2 twice daily for 14 days followed by a break for 7 days) or the same regimen of oral capecitabine plus 16 cycles of 7.5 mg/kg bevacizumab by intravenous infusion over 90 min on day 1 of each cycle. All patients consented for use of biological samples and medical records in research. Cardiovascular toxicity was confirmed by two independent clinicians reviewing patient case report forms.
3% of colorectal cancer patients administered with capecitabine as part of the QUASAR 2 clinical trial experienced cardiovascular related adverse events. The most commonly described events were cardiac chest pain and angina. The inventors performed a genome wide association study to identify genetic markers associated with cardiovascular adverse events under an additive genetic model. Given the rarity of cardiovascular toxicity, variants with a minor allele frequency (MAF)<10% were filtered out. […]

Row | Compound | patients with reduced DPD activity who experience cardiotoxicity [1] | patients who experienced cardiovascular related adverse events [2]
1 | O=c1[nH]cc(F)c(=O)[nH]1 [5FU, 5-flurouracil] | 2-5% | 
2 | CCCCCOC(=O)Nc1nc(=O)n(C2OC(C)C(O)C2O)cc1F (centres unmarked) [capecitabine, pentyl [1-(3,4-dihydroxy-5-methyltetrahydrofuran-2-yl)-5-fluoro-2-oxo-1H-pyrimidin-4-yl]carbamate] |  | 3%
